# In PubChem BioAssay (NCI):
#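 Where inhibition never reached the appropriate level, the endpoint shown equals the highest concentration tested. Otherwise, values were interpolated linearly from a five-concentration, 48-hour dose response in 96-well plates. Definition used: TGI = concentration required for complete inhibition of growth.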
# Legend:
# Assay in all cases: NCI tumour cell line growth inhibition, 48 h
# [1] = test system: 786-0 renal
# [2] = test system: A498 renal
# [3] = test system: A549 NSCLC
# [4] = test system: ACHN renal
# [5] = test system: BT-549 breast
# [6] = test system: CAKI-1 renal
# [7] = test system: CCRF-CEM leukemia
# [8] = test system: COLO 205 colon
# [9] = test system: DU-145 prostate
# [10] = test system: EKVX NSCLC
# [11] = test system: HCT-116 colon
# [12] = test system: HCT-15 colon
# [13] = test system: HL-60(TB) leukemia
# [14] = test system: HOP-62 NSCLC
# [15] = test system: HS 578T breast
# [16] = test system: HT29 colon
# [17] = test system: IGROV1 ovarian
# [18] = test system: KM12 colon
# [19] = test system: LOX IMVI melanoma
# [20] = test system: M14 melanoma
# [21] = test system: MALME-3M melanoma
# [22] = test system: MCF7 breast
# [23] = test system: MDA-MB-231 breast
# [24] = test system: MDA-MB-435
# [25] = test system: MDA-N
# [26] = test system: MOLT-4 leukemia
# [27] = test system: NCI-H226 lung
# [28] = test system: NCI-H23 lung
# [29] = test system: NCI-H522 lung
# [30] = test system: NCI/ADR-RES ovarian
# [31] = test system: OVCAR-4 ovarian
# [32] = test system: OVCAR-5 ovarian
# [33] = test system: OVCAR-8 ovarian
# [34] = test system: PC-3 prostate
# [35] = test system: RXF 393 renal
# [36] = test system: SF-268 CNS
# [37] = test system: SF-295 CNS
# [38] = test system: SF-539 CNS
# [39] = test system: SK-MEL-2 melanoma
# [40] = test system: SK-MEL-28 melanoma
# [41] = test system: SK-MEL-5 melanoma
# [42] = test system: SK-OV-3 ovarian
# [43] = test system: SN12C renal
# [44] = test system: SNB-19 CNS
# [45] = test system: SNB-75 CNS
# [46] = test system: SW-620 colon
# [47] = test system: T-47D breast
# [48] = test system: TK-10 renal
# [49] = test system: U251 CNS
# [50] = test system: UACC-257 melanoma
# [51] = test system: UACC-62 melanoma
# [52] = test system: UO-31 renal
# [53] = test system: HCC-2998 colon
# [54] = test system: K-562 leukemia
# [55] = test system: OVCAR-3 ovarian
# [56] = test system: RPMI-8226 leukemia
# [57] = test system: SR leukemia
# [58] = test system: HOP-92 NSCLC
# [59] = test system: NCI-H460 lung
smiles,measurement,setting,value
CCSc1cc(C(=O)OC)c2n(c1=O)CCCC2,TGI,[1],> 100 µM
same,TGI,[2],> 100 µM
same,TGI,[3],> 100 µM
same,TGI,[4],> 100 µM
same,TGI,[5],> 100 µM
same,TGI,[6],> 100 µM
same,TGI,[7],> 100 µM
same,TGI,[8],> 100 µM
same,TGI,[9],> 100 µM
same,TGI,[10],> 100 µM
same,TGI,[11],> 100 µM
same,TGI,[12],> 100 µM
same,TGI,[13],> 100 µM
same,TGI,[14],> 100 µM
same,TGI,[15],> 100 µM
same,TGI,[16],> 100 µM
same,TGI,[17],> 100 µM
same,TGI,[18],> 100 µM
same,TGI,[19],> 100 µM
same,TGI,[20],> 100 µM
same,TGI,[21],> 100 µM
same,TGI,[22],> 100 µM
same,TGI,[23],> 100 µM
same,TGI,[24],> 100 µM
same,TGI,[25],> 100 µM
same,TGI,[26],> 100 µM
same,TGI,[27],> 100 µM
same,TGI,[28],> 100 µM
same,TGI,[29],> 100 µM
same,TGI,[30],> 100 µM
same,TGI,[31],> 100 µM
same,TGI,[32],> 100 µM
same,TGI,[33],> 100 µM
same,TGI,[34],> 100 µM
same,TGI,[35],> 100 µM
same,TGI,[36],> 100 µM
same,TGI,[37],> 100 µM
same,TGI,[38],> 100 µM
same,TGI,[39],> 100 µM
same,TGI,[40],> 100 µM
same,TGI,[41],> 100 µM
same,TGI,[42],> 100 µM
same,TGI,[43],> 100 µM
same,TGI,[44],> 100 µM
same,TGI,[45],> 100 µM
same,TGI,[46],> 100 µM
same,TGI,[47],> 100 µM
same,TGI,[48],> 100 µM
same,TGI,[49],> 100 µM
same,TGI,[50],> 100 µM
same,TGI,[51],> 100 µM
same,TGI,[52],> 100 µM
CNC(=O)Oc1ccc(C(=S)Nc2ccc(Br)cc2)cc1,TGI,[1],60.5 µM
same,TGI,[2],53.3 µM
same,TGI,[3],> 100 µM
same,TGI,[4],> 100 µM
same,TGI,[5],44.2 µM
same,TGI,[6],51.3 µM
same,TGI,[7],18.3 µM
same,TGI,[8],39.2 µM
same,TGI,[9],81 µM
same,TGI,[10],42 µM
same,TGI,[53],41.4 µM
same,TGI,[11],46.1 µM
same,TGI,[12],43.1 µM
same,TGI,[13],24.8 µM
same,TGI,[14],> 100 µM
same,TGI,[15],> 100 µM
same,TGI,[16],44.8 µM
same,TGI,[17],18.7 µM
same,TGI,[54],76.1 µM
same,TGI,[18],35.9 µM
same,TGI,[19],27 µM
same,TGI,[20],46.4 µM
same,TGI,[21],98.8 µM
same,TGI,[22],83.4 µM
same,TGI,[24],63.9 µM
same,TGI,[25],57.3 µM
same,TGI,[26],40.4 µM
same,TGI,[28],38.3 µM
same,TGI,[29],31.2 µM
same,TGI,[30],54.7 µM
same,TGI,[55],49.4 µM
same,TGI,[31],77.1 µM
same,TGI,[32],77.4 µM
same,TGI,[33],22.4 µM
same,TGI,[34],83.3 µM
same,TGI,[56],> 100 µM
same,TGI,[36],> 100 µM
same,TGI,[38],47.2 µM
same,TGI,[39],46 µM
same,TGI,[40],62.7 µM
same,TGI,[41],34.9 µM
same,TGI,[42],> 100 µM
same,TGI,[44],> 100 µM
same,TGI,[57],46.1 µM
same,TGI,[46],> 100 µM
same,TGI,[47],80.2 µM
same,TGI,[49],74.8 µM
same,TGI,[50],> 100 µM
same,TGI,[51],30.1 µM
same,TGI,[52],60 µM
Cc1cc2nc(N3C(=O)/C(=C/c4ccc(Oc5ccccc5)cc4)N=C3c3ccccc3)sc2cc1C,TGI,[1],> 100 µM
same,TGI,[2],> 100 µM
same,TGI,[3],> 100 µM
same,TGI,[4],> 100 µM
same,TGI,[5],> 100 µM
same,TGI,[6],> 100 µM
same,TGI,[7],> 100 µM
same,TGI,[8],47.6 µM
same,TGI,[9],> 100 µM
same,TGI,[10],> 100 µM
same,TGI,[53],> 100 µM
same,TGI,[11],> 100 µM
same,TGI,[12],> 100 µM
same,TGI,[13],63.8 µM
same,TGI,[14],> 100 µM
same,TGI,[58],> 100 µM
same,TGI,[15],> 100 µM
same,TGI,[16],> 100 µM
same,TGI,[17],> 100 µM
same,TGI,[54],> 100 µM
same,TGI,[18],> 100 µM
same,TGI,[19],> 100 µM
same,TGI,[20],> 100 µM
same,TGI,[21],> 100 µM
same,TGI,[22],> 100 µM
same,TGI,[23],> 100 µM
same,TGI,[24],83.4 µM
same,TGI,[25],> 100 µM
same,TGI,[26],> 100 µM
same,TGI,[28],> 100 µM
same,TGI,[59],> 100 µM
same,TGI,[29],80.5 µM
same,TGI,[30],91.6 µM
same,TGI,[55],> 100 µM
same,TGI,[31],> 100 µM
same,TGI,[32],> 100 µM
same,TGI,[33],> 100 µM
same,TGI,[34],> 100 µM
same,TGI,[56],86.8 µM
same,TGI,[35],> 100 µM
same,TGI,[36],> 100 µM
same,TGI,[37],> 100 µM
same,TGI,[39],71.6 µM
same,TGI,[40],> 100 µM
same,TGI,[41],> 100 µM
same,TGI,[42],> 100 µM
same,TGI,[43],> 100 µM
same,TGI,[44],> 100 µM
same,TGI,[45],> 100 µM
same,TGI,[46],> 100 µM
same,TGI,[47],> 100 µM
same,TGI,[48],> 100 µM
same,TGI,[49],> 100 µM
same,TGI,[50],> 100 µM
same,TGI,[51],> 100 µM
same,TGI,[52],> 100 µM
Cn1c(=O)c2ccccc2c2ccccc21,TGI,[1],> 100 µM
same,TGI,[2],93.8 µM
same,TGI,[3],> 100 µM
same,TGI,[4],> 100 µM
same,TGI,[5],> 100 µM
same,TGI,[6],89.8 µM
same,TGI,[7],> 100 µM
same,TGI,[8],> 100 µM
same,TGI,[9],> 100 µM
same,TGI,[10],63.1 µM
same,TGI,[53],> 100 µM
same,TGI,[11],> 100 µM
same,TGI,[12],> 100 µM
same,TGI,[14],> 100 µM
same,TGI,[58],> 100 µM
same,TGI,[15],> 100 µM
same,TGI,[16],> 100 µM
same,TGI,[18],> 100 µM
same,TGI,[19],> 100 µM
same,TGI,[20],> 100 µM
same,TGI,[21],> 100 µM
same,TGI,[22],> 100 µM
same,TGI,[23],> 100 µM
same,TGI,[24],> 100 µM
same,TGI,[25],> 100 µM
same,TGI,[27],> 100 µM
same,TGI,[28],> 100 µM
same,TGI,[59],> 100 µM
same,TGI,[29],> 100 µM
same,TGI,[30],> 100 µM
same,TGI,[55],> 100 µM
same,TGI,[31],> 100 µM
same,TGI,[33],> 100 µM
same,TGI,[34],> 100 µM
same,TGI,[56],> 100 µM
same,TGI,[35],> 100 µM
same,TGI,[36],> 100 µM
same,TGI,[37],> 100 µM
same,TGI,[38],> 100 µM
same,TGI,[39],> 100 µM
same,TGI,[40],> 100 µM
same,TGI,[41],95.7 µM
same,TGI,[42],94.1 µM
same,TGI,[43],> 100 µM
same,TGI,[44],> 100 µM
same,TGI,[45],> 100 µM
same,TGI,[46],> 100 µM
same,TGI,[47],> 100 µM
same,TGI,[48],> 100 µM
same,TGI,[49],> 100 µM
same,TGI,[50],> 100 µM
same,TGI,[51],> 100 µM
same,TGI,[52],> 100 µM
Clc1ccc2c(NCCNC3CCCCC3)ccnc2c1,TGI,[1],20.9 µM
same,TGI,[2],5.85 µM
same,TGI,[3],31.2 µM
same,TGI,[4],25.3 µM
same,TGI,[5],23.3 µM
same,TGI,[6],24.3 µM
same,TGI,[7],9.77 µM
same,TGI,[8],2.79 µM
same,TGI,[9],36.7 µM
same,TGI,[10],15.7 µM
same,TGI,[11],21.1 µM
same,TGI,[12],20.4 µM
same,TGI,[13],6.63 µM
same,TGI,[14],27.4 µM
same,TGI,[58],22.5 µM
same,TGI,[15],8.15 µM
same,TGI,[16],14.8 µM
same,TGI,[17],27.8 µM
same,TGI,[54],6.13 µM
same,TGI,[18],31 µM
same,TGI,[19],8.53 µM
same,TGI,[20],3.41 µM
same,TGI,[21],3.64 µM
same,TGI,[22],15.9 µM
same,TGI,[23],23.8 µM
same,TGI,[24],9.92 µM
same,TGI,[25],5.42 µM
same,TGI,[26],18.6 µM
same,TGI,[27],24.8 µM
same,TGI,[28],32.2 µM
same,TGI,[29],7.46 µM
same,TGI,[30],33.7 µM
same,TGI,[55],37.5 µM
same,TGI,[31],46.5 µM
same,TGI,[32],30.5 µM
same,TGI,[33],31.9 µM
same,TGI,[34],33.9 µM
same,TGI,[56],17 µM
same,TGI,[35],27.1 µM
same,TGI,[36],22.8 µM
same,TGI,[37],10.3 µM
same,TGI,[39],11 µM
same,TGI,[40],3.62 µM
same,TGI,[41],3.16 µM
same,TGI,[42],37.8 µM
same,TGI,[43],33.8 µM
same,TGI,[44],35.5 µM
same,TGI,[45],23.4 µM
same,TGI,[46],29.7 µM
same,TGI,[47],64.6 µM
same,TGI,[48],7.15 µM
same,TGI,[49],17.7 µM
same,TGI,[51],15.8 µM
same,TGI,[52],11.2 µM
